Converted amounts (≈) assume the structure as drawn. Where two headings read alike, the source gives them in different places.
Tests used:
[1] = In vivo pharmacokinetics in rats after intravenous or oral cordycepin; set-up: species or system Sprague Dawley rats; settings: for AUC(0-t) / C0 / clearance: in vivo; for AUC(0-t) / C0 / AUC0→t/Dose of cordycepin: rat plasma; for AUC(0-t): read-out: AUC0→t of cordycepin; for C0: read-out: C0 of cordycepin; for clearance: read-out: CL of cordycepin (converted)
Method: Protocols for the animal experiments in this study were reviewed and approved by the University of Nottingham Ethical Review Committee in accordance with the Animals [Scientific Procedures] Act 1986. Four male Sprague Dawley rats (Charles River Laboratories, UK) of 300–350 g body weight were used. The animals were housed in the Bio Support Unit, University of Nottingham at controlled temperature, 12 h light/dark cycle and free access to food and water. The animals were allowed to acclimatise for at least six days prior to any procedures.
Prior to pharmacokinetic studies, jugular vein cannulation surgery was performed under general anaesthesia (<3% isoflurane inhalation) for blood sampling or intravenous drug administration. Following two nights of recovery from surgery, the animals were intravenously or orally administered with the PBS-based formulation (5.5 mg/mL cordycepin) developed in a previously reported study. The dose was 8 or 20 mg/kg for intravenous administration and 8 or 80 mg/kg for oral administration. […] When whole blood was analysed, an aliquot was withdrawn immediately after mixing with the pretreated pentostatin. Otherwise, the mixture was centrifuged (3000 g, 10 min) to obtain plasma and samples were stored within the storage conditions tested prior to analysis.
Samples from Caco-2 permeability, in vitro determination of CordyTP formation and in vivo experiments were subjected to protein precipitation followed by LC-MS/MS analysis. To 50 µL of rat plasma sample, 150 µL of internal standard solution (1.67 µg/mL 2-chloroadenosine in methanol) was added. The samples were then vortex-mixed for 10 s and were centrifuged for 3 min at 17949 g. Supernatant (20 µL) was collected and diluted 10-fold with DDW before injection into the LC-MS/MS for analysis of cordycepin and 3′-deoxyinosine. For analysis of CordyTP, the supernatant was filtered using filter tubes mentioned above and injected without dilution. Tissue samples were homogenised using Bullet Blender Gold (Next Advance, Inc., Troy, NY) in methanol (1:3 w/v) and centrifuged for 3 min at 17949 g. The supernatant was filtered and injected for analysis of CordyTP or diluted 10-fold with DDW for analysis of cordycepin and 3′-deoxyinosine. The LC-MS/MS system was a API4000 QTrap (AB Sciex, Warrington, UK) equipped with HPLC setup of SCL10Avp controller, LC10ADvp pump and SILHTC autosampler (Shimadzu, Milton Keynes, UK). Three different methods were utilised for each compound and multiple reaction monitoring parameters of the MS/MS conditions are shown in Table 1. The HPLC conditions including stationary phases and specific mass spectrometry parameters are shown in Supplementary Information 2. The LC-MS/MS method for cordycepin was fully validated in terms of accuracy, precision, sensitivity, selectivity, linearity and sample storage stability in accordance with the Guidance for Industry, Bioanalytical Method Validation, (2018) published by the US FDA (refer to Supplementary Information 3 for validation procedures and results)[53].
Data are presented as mean ± standard deviation (SD). A two-tailed unpaired t-test was applied for assessment of statistical significance of differences between two groups. For three or more groups, the statistical significance was assessed by application of a one-way ANOVA followed by Tukey’s multiple comparisons test. A p-value lower than 0.05 was deemed statistically significant. Statistical analyses were conducted using GraphPad Prism version 7.01 (GraphPad Software, Inc., La Jolla, CA, USA). Pharmacokinetic parameters were obtained by non-compartmental analysis using Phoenix WinNonlin 6.3 software (Pharsight, Mountain View, CA, USA).
For calculation of pharmacokinetic parameters, the plasma concentration-time curve was plotted in a semi-log scale. From the plot, the elimination rate constant (ke) was calculated. Elimination half-life (t1/2) wasthen calculated using the following equation: […]

[2] = set-up: method as in PMID 28560504; settings: previously reported; cited from earlier work
[3] = Sample storage stability of cordycepin in rat plasma containing pentostatin; assay type: in vitro ADME; settings: for Autosampler (24 h, 4°C) sample stability: processed samples; for Freeze-thaw (3 cycles) sample stability / Long-term (4 weeks, -80°C) sample stability / Long-term (5 days, -80°C) sample stability / Short-term (4 h, RT) sample stability: rat plasma with 10 µM pentostatin
Method: Stability of cordycepin was tested in different conditions. […] Samples withdrawn at pre-determined time points were prepared and analysed for stability and degradation rate of cordycepin in rat plasma.
Sample storage stability studies were conducted with QC samples (LQC, MQC and HQC; 5 replicates for each condition). […] Short-term (benchtop) stability was tested after storing spiked QC samples for 4 h at room temperature. Long-term stability was tested in storage condition of -80 °C for 5 days and 4 weeks. Freeze-thaw cycle stability was tested after undergoing three cycles between -80 °C and room temperature. Autosampler stability was tested by analysing processed QC samples after storage at 4 °C for 24 h. All stability samples were quantified with freshly prepared calibration curve samples. Stock solution stability was tested by analysing five different aliquots of 1000 ng/mL working standard solution stored for 6 h at room temperature and comparing to a fresh working standard solution.

[4] = male, Sprague Dawley, intravenous cordycepin 8 mg/kg
[5] = male, Sprague Dawley, intravenous cordycepin 20 mg/kg

Nc1ncnc2c1ncn2[C@@H]1O[C@H](CO)C[C@H]1O [cordycepin, 3′-deoxyadenosine]
AUC(0-t) [1, 4]: 196 ± 94 ng·h/mL | C0 [1, 4]: 890 ± 576 ng/mL | AUC(0-t) [1, 5]: 232 ± 106 ng·h/mL | C0 [1, 5]: 12300 ± 8840 ng/mL | clearance ([1]; male, Sprague Dawley, rat, intravenous cordycepin 8 mg/kg): 1720 mL/min/kg | clearance ([1]; male, Sprague Dawley, rat, intravenous cordycepin 20 mg/kg): 1520 mL/min/kg | blood plasma ratio ([1]; male, Sprague Dawley, rat, whole blood and plasma, intravenous, 20 mg/kg, intravenous cordycepin 20 mg/kg): 0.68 ± 0.27 | AUC0→t/Dose of cordycepin ([1]; intravenous cordycepin 8 mg/kg): 25 ± 12 ng·kg·h/mL/mg | AUC0→t/Dose of cordycepin ([1]; intravenous cordycepin 20 mg/kg): 12 ± 5 ng·kg·h/mL/mg | increase of AUC when dose increased from 8 to 20 mg/kg ([1]; rat, intravenous cordycepin): 1.18 fold | increase of C0 when dose increased from 8 to 20 mg/kg ([1]; rat, intravenous cordycepin): 13.8 fold | blood/plasma ratio ([1]; rat, intravenous cordycepin 20 mg/kg): < 1 | cordycepin in plasma after oral administration ([1]; rat, oral cordycepin 8 or 80 mg/kg, any time point, limit of quantification 2 ng/mL): not detected in plasma at all | solubility in water [2]: 5000 ± 100 µg/mL (≈ 19.9 mM) | Autosampler (24 h, 4°C) sample stability ([3]; HQC 4000 ng/mL): 100.4 ± 3.4 | Freeze-thaw (3 cycles) sample stability ([3]; HQC 4000 ng/mL): 106.7 ± 7.4 | Long-term (4 weeks, -80°C) sample stability ([3]; HQC 4000 ng/mL): 103.8 ± 1.5 | Long-term (5 days, -80°C) sample stability ([3]; HQC 4000 ng/mL): 98.6 ± 5.4 | Short-term (4 h, RT) sample stability ([3]; HQC 4000 ng/mL): 107.4 ± 2.9 | Autosampler (24 h, 4°C) sample stability ([3]; LQC 5 ng/mL): 113.8 ± 8.9 | Freeze-thaw (3 cycles) sample stability ([3]; LQC 5 ng/mL): 104.5 ± 7.4 | Long-term (4 weeks, -80°C) sample stability ([3]; LQC 5 ng/mL): 93.5 ± 7.0 | Long-term (5 days, -80°C) sample stability ([3]; LQC 5 ng/mL): 107.4 ± 3.8 | Short-term (4 h, RT) sample stability ([3]; LQC 5 ng/mL): 104.7 ± 9.2 | Autosampler (24 h, 4°C) sample stability ([3]; MQC 80 ng/mL): 91.6 ± 3.6 | Freeze-thaw (3 cycles) sample stability ([3]; MQC 80 ng/mL): 113.1 ± 13.1 | Long-term (4 weeks, -80°C) sample stability ([3]; MQC 80 ng/mL): 113.5 ± 3.3 | Long-term (5 days, -80°C) sample stability ([3]; MQC 80 ng/mL): 110.0 ± 3.3 | Short-term (4 h, RT) sample stability ([3]; MQC 80 ng/mL): 98.2 ± 7.3
